From ChEMBL document CHEMBL1944631, “Solid-state NMR analysis of calcium and d-mannose binding of BMY-28864, a water-soluble analogue of pradimicin A” (Bioorg Med Chem Lett, 2012)
Values after ≈ are worked out from the molar mass of the structure shown. Active and inactive are the calls of the source. The rule behind the calls is not given here.

How the values were obtained:
[1] = Binding affinity to methyl alpha-D-mannopyranoside at -135 ppm by Solid-state CP/MAS 113Cd NMR spectroscopy
[2] = Solubility of the compound in phosphate buffered saline at pH 7.4; format: physicochemical
[3] = Binding affinity to [13C6]-methyl alpha-D-mannopyranoside by 2-DDARR in presence of Ca2+ relative to TMS
[4] = Binding affinity to methyl alpha-D-mannopyranoside at -129 ppm by Solid-state CP/MAS 113Cd NMR spectroscopy

Activity [1]	solubility [2] [µg/mL]	Activity [3]	Activity [4]	SMILES
Active	20 (≈ 23.8 µM)	Active	–	CN[C@@H]1[C@H](O[C@@H]2OC[C@@H](O)[C@H](O)[C@H]2O)[C@@H](O)[C@H](O[C@H]2c3cc(C)c(C(=O)N[C@H](C)C(=O)O)c(O)c3-c3c(cc4c(c3O)C(=O)c3cc(OC)cc(O)c3C4=O)[C@@H]2O)O[C@@H]1C [PRADIMICIN A]
–	> 20000	Active	Active	COc1cc(O)c2c(c1)C(=O)c1c(cc3c(c1O)-c1c(cc(C)c(C(=O)N[C@H](CO)C(=O)O)c1O)[C@H](O[C@@H]1O[C@H](C)[C@H](N(C)C)[C@H](O[C@@H]4OC[C@@H](O)[C@H](O)[C@H]4O)[C@H]1O)[C@H]3O)C2=O
–	260 (≈ 303 µM)	–	–	CN[C@@H]1[C@H](O[C@@H]2OC[C@@H](O)[C@H](O)[C@H]2O)[C@@H](O)[C@H](O[C@H]2c3cc(C)c(C(=O)N[C@H](CO)C(=O)O)c(O)c3-c3c(cc4c(c3O)C(=O)c3cc(OC)cc(O)c3C4=O)[C@@H]2O)O[C@@H]1C
